Experimental data from the NIST ThermoML archive (doi:10.1021/je400082c).

Conditions: Liquid

CCC(O)CO (centres undefined) [1,2-butanediol]
Conditions | vapor or sublimation pressure [kPa]
372.06 K | 1.89
382.61 K | 3.33
390.52 K | 4.96
395.55 K | 6.36
399.56 K | 7.66
402.61 K | 8.81
405.13 K | 9.9
405.42 K | 10
408.5 K | 11.39
413.34 K | 14.09
418.29 K | 17.27
421.49 K | 19.63
424.91 K | 22.54
427.57 K | 25.06
429.92 K | 27.24
432.76 K | 30.39
435.37 K | 33.36
438.52 K | 37.3
439.97 K | 39.3
441.78 K | 41.9
443.55 K | 44.75

OCCO [1,2-ethanediol]
Conditions | vapor or sublimation pressure [kPa]
386.15 K | 3.92
389.12 K | 4.51
389.95 K | 4.78
390.75 K | 4.89
395.25 K | 6.08
400.78 K | 7.87
402.15 K | 8.37
405.85 K | 9.85
406.09 K | 10
406.25 K | 10.02
409.3 K | 11.42
411.15 K | 12.41
411.85 K | 12.85
413.85 K | 13.85
416.45 K | 15.37

CC(O)CO (centres undefined) [1,2-propanediol]
Conditions | vapor or sublimation pressure [kPa]
398.23 K, Ebulliometric method (Recirculating still) | 10

CC(O)CCO (centres undefined) [1,3-butanediol]
Conditions | vapor or sublimation pressure [kPa]
387.75 K | 2.43
395.13 K | 3.6
402.05 K | 5.03
406.61 K | 6.26
411.11 K | 7.72
413.41 K | 8.54
416.91 K | 10
418.03 K | 10.48
420.85 K | 11.87
422.04 K | 12.54
425.8 K | 14.63
427.74 K | 15.84
429.75 K | 17.09
433.71 K | 19.96
436.29 K | 22.24
439.65 K | 25.3
442.45 K | 28.15
444.75 K | 30.78
447.01 K | 33.36
449.8 K | 36.78
451.7 K | 39.45
453.1 K | 41.39
